Assay results: patent US20250195508A1, “COMPOUNDS AND COMPOSITIONS FOR ANITMALARIAL THERAPEUTIC AND PROPHYLACTIC USE” (UNIVERSITY OF CENTRAL FLORIDA RESEARCH FOUNDATION, INC., priority 2022, published 2025)
“Also recorded” adds a separate entry of the source.

What was measured:
recombinant human EPHA2 = recombinant human EPHA2 (Homo sapiens (Human), UniProt P29317); experiment: Z′-LYTE FRET-based in vitro biochemical kinase assay; conditions: recombinant human EPHA2 expressed in insect cells; read-out: Human EPHA2 IC50 (nM) ± SD
Sequence of recombinant human EPHA2 (P29317 24-976): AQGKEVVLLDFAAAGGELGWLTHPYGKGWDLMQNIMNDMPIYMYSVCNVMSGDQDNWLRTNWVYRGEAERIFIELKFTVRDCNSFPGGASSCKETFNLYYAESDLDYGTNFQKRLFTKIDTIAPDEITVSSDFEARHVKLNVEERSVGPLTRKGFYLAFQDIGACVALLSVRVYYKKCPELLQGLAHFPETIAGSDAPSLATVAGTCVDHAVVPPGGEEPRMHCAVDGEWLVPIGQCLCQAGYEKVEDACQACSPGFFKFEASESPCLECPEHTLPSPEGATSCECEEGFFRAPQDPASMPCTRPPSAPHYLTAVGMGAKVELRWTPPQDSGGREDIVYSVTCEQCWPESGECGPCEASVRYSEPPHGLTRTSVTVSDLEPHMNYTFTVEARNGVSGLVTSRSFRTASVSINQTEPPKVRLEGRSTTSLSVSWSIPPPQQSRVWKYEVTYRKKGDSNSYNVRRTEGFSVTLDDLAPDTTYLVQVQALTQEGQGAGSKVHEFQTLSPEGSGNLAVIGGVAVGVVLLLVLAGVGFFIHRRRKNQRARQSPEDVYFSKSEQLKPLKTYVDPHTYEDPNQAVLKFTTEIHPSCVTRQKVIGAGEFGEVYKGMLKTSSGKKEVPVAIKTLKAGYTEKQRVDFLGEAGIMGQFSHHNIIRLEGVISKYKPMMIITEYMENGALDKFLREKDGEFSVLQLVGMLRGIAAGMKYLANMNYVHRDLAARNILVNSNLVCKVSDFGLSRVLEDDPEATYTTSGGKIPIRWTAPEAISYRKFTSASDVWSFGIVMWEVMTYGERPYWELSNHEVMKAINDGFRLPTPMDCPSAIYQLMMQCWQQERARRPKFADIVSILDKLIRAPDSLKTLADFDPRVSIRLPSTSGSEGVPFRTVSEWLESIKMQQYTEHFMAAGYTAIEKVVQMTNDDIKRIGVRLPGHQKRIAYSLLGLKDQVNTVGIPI
Description: Several analogs were synthesized based on the structure of TL5-135 for further study. […] For the data in Table 1, compounds were subjected to in vitro biochemical kinase assays done using recombinant human ephrin type-A receptor 2 (EPHA2) (expressed in insect cells) in a Z′-LYTE® FRET-based kinase assay. P. falciparum Dd2 EC50 was determined using the standard 72 hour SYBR Green I assay (Dd2 Proliferation Assay) as known in the art. […] The structures of compoundsTL5-134, TL5-139, and TL5-145 are shown below.
In vitro biochemical kinase assays were done using recombinant human EPHA2 (expressed in insect cells) in a Z′-LYTE® FRET-based kinase assay. P. falciparum Dd2 EC50 was determined using the standard 72 h SYBR Green I assay.

[1] = tested on: P. berghei luciferase expressing parasites; experiment: Liver stage assay with luciferase expressing parasites; assay type: cell-based; conditions: Plasmodium berghei, read-out: Liver Stage EC50 (nM) ± SD
Description: P. falciparum Dd2 EC50 was determined using SYBR Green I assay. For the selectivity index ([…]) cytotoxicity was determined using CellTiter 96® AQueous MTS. The liver stage assay was performed using P. berghei luciferase expressing parasites. All assays were performed with technical quadruplicates and 3 biological replicates. Assays have a Z′ factor >0.7.

[2] = tested on: P. berghei luc sporozoites (Pb-Luc); experiment: Prophylaxis assay, single IV dose 6 hours before Pb-Luc sporozoite infection; assay type: in vivo, mice
Description: (§1) TL5-135 was dissolved or resuspended in a suspending vehicle consisting of 30% DMSO, 1% methylcellulose, 0.5% TWEEN-80, and 68.5% ultrapure water. GNF179 was resuspended in 30% DMSO, 30% PEG400, 5% TWEEN-80, 35% saline, and administered intravenously.
(§2) For prophylaxis assays, a single dose of […] was administrated 6 hours before infection. For therapeutic assays, in a 4-day's Peters test, 4 doses (each 15 mg/kg) were administrated 6, 18, 30, and 42 hours post infection.
(§3) The antimalarial activity was measured as a percent reduction in parasitemia from day one until day twelve post-infection.
Infection was initiated using 100,000 P. berghei luc sporozoites (Pb-Luc). The drugs were administered IV at 50 mg/kg, single dose 6 hours prior. I: infected, UI: uninfected.
(§4) Groups of 5 mice were infected with 100,000 Pb-Luc sporozoites by IV injection. Prophylactic (single dose of 50 mg/kg through IV injection, 6 hour before infection) and therapeutic (4-day Peters test, 4 doses of 15 mg/kg each time were administrated post-infection at 6, 18, 30, and 42 hours post infection (hpi) and the activity of the compounds was evaluated. See FIG. 8A. The parasitemia was estimated after flow cytometric enumeration of rodent malaria parasite Pb-Luc-infected red blood cells (RBS) stained with SYBR Green I, from day 3 until 20.
(§5) TL5-135 and GNF179 antimalarial compounds were tested against Pb-Luc sporozoites. Prophylactic activity (single dose of 15 mg/kg through an IV injection, 6 hours before infection) and therapeutic activity (4-day Peters test, 4 doses of 15 mg/kg each time was administrated at 6, 18, 30, and 42 hpi of the TL5-135 antimalarial compound was evaluated. As before, groups of five mice were infected with 100,000 Pb-Luc sporozoites by IV injection. The parasitemia was estimated after flow cytometric enumeration of rodent malaria parasite Pb-Luc-infected red blood cells (RBS) stained with SYBR Green I, from day 3 until day 20. See FIG. 8B.

Pb-Luc sporozoites = experiment: Therapeutic assay, 4-day Peters test against Pb-Luc sporozoites; assay type: in vivo, mice; conditions: therapeutic, 4 doses of 15 mg/kg
Description: as §1, §2, §3
However, the mice treated with TL5-135 as a therapeutic had about 2.4% parasitemia after 12 days post-infection (all negative control mice died between days 11-13). The parasitemia on day 21 (21 days post-infection) for the group of mice was 35%.
as §4, §5

P. falciparum strain Dd2 = experiment: Stage specificity assay; assay type: cell-based; conditions: for Stage specific action, treated at early ring stage: 400 nM (5×EC50) at 6 hours post infection for 12 hours
Description: Asexual stage P. falciparum cultures were synchronized by MACS magnetic column, followed 3 hours later by treatment with 5% sorbitol to select for rings. Six hours after invasion, parasites were plated onto a 96-well plate at 1% parasitemia and 1% hematocrit, maintained at 37° C. in 5% CO2, and compound was added at 5×EC50 to the 6 HPI wells. Every 12 hours, until reinvaded rings (54 HPI), thin blood smear slides for Giemsa-stain were taken, and samples were washed and fixed in 4% paraformaldehyde in PBS with 0.04% glutaraldehyde. At the conclusion of the timepoints, all samples were permeabilized with 0.25% Triton X-100 before being treated with 50 μg/mL RNase A and stained with 500 nM YOYO-1. Samples were then washed, and flow cytometric analysis was performed with a CytoFLEX S™, collecting 100,000 events per sample. Analysis was performed with FlowJo™ software Version 10.
The stage specific action of the prioritized hits was determined as follows. Synchronized cultures of P. falciparum strain Dd2 were exposed to 400 nM (5×EC50) compound at 6 hours post infection for 12 hours and fixed samples labeled with YOYO-1 dye were analyzed by flow cytometry and microscopy using Giemsa-stained thin smears.

P. falciparum Dd2 = experiment: Rate of killing assay; assay type: cell-based; conditions: 10×EC50, 12-hour exposure then wash off
Description: Asynchronous P. falciparum Dd2 cultures were plated at 1% parasitemia, 4% hematocrit into a 24-well plate, incubated at 37° C. in 5% CO2. Wells were treated with 10×EC50 of compound for 12, 24, or 48 hours before the compound was removed. Every 24 hours thereafter for 4 days total, culture samples were washed in 0.5% BSA and stained with 1×SYBR Green I and 60 μM MitoTracker Deep Red FM for 20 minutes at 37° C. After another wash in 0.5% BSA, samples were resuspended in PBS and analyzed via flow cytometry with a CytoFLEX S™, with 100,000 events recorded per sample. For gating, the following controls were used: uninfected RBCs, untreated culture, DHA-treated culture, and untreated culture without MitoTracker stain. Viable parasite percentage was determined by finding the fraction of SYBR Green/MitoTracker double positive cells from the total events. Analysis was performed with FlowJo software Version 10.
Asynchronous cultures of P. falciparum Dd2 parasites were treated with 10×EC50 of the indicated compound for 12 hours prior to compound wash off. Flow cytometry with SYBR Green I (nuclear dye) and Mitotracker Deep Red FM (mitochondria staining) was done after compound wash-off every 24 hours after for […] (100,000 events/sample) to track parasitemia (data from 3 biological replicates±SEM).

in vitro = in vitro ADME; conditions: mouse liver microsomes; read-out: t1/2 in mouse liver microsomes

In the case of `CCN1CCN(Cc2ccc(NC(=O)c3cc(Cl)cc(NC(=O)c4cncc(-c5cccs5)c4)c3)cc2C(F)(F)F)CC1` [TL5-135], the IC50 (recombinant human EPHA2) is reported as over 10000 nM, the EC50 [1] is reported as 108 ± 35 nM and the “Condition of mice after prophylactic treatment” value ([2]; single dose 15 mg/kg 6 hours before infection, after 22 days) is reported as “still healthy and alive”. For the same compound, the Prophylactic activity ([2]; single dose 50 mg/kg IV 6 hours prior to infection with 100,000 Pb-Luc sporozoites) was “has prophylactic activity; also recorded: prevent infection”, the “Parasitemia 12 days post-infection” value (Pb-Luc sporozoites; 12 days post-infection) was “about 2.4%” and the “Parasitemia on day 21” value (Pb-Luc sporozoites; 21 days post-infection) was 35%. The “Stage specific action, treated at early ring stage” value (P. falciparum strain Dd2) was “blocks ring to trophozoite maturation”, the “Stage specific action, treated at early ring stage” value (P. falciparum strain Dd2; listed as TL-135) was “block ring to trophozoite maturation” and the “Stage specific action, added at trophozoite and schizont stages” value (P. falciparum strain Dd2; data not shown) was “blocks maturation of asexual parasites”. For the same compound, the Killing profile (P. falciparum Dd2) was “pronounced irreversible killing”, the Killing profile (P. falciparum Dd2; listed as TL-135) was “exhibited a killing effect” and the half-life (in vitro) was 1.32 h.
